Ends that are not written are not given here.
Key:
[1] = system: RAW 264.7 cells; assay: Phagocytosis assay (Fluorescein-labeled Escherichia coli, flow cytometry); format: cell-based, Mouse; conditions: 10 micrograms per ml, combination peptide 1:peptide 2 1.10 mole:0.90 mole
[2] = system: Tumor Necrosis Factor-α (TNF-α); assay: Th1/Th2 cytokine profiling assay, TNF-α; format: cell-based; conditions: 10 micrograms per ml; Ovalbumin-restimulated spleen cells of immunized Balb/c mice; 72 hours
Description: (§1) The Balb/c mice (originated in 1923, it is a popular strain and is used in many different research disciplines. Also classified as an inbred from the production of 20 or more successive brother-sister matings, the Balb/c mouse is albino and small in size) were immunized on Days 1, 15, and 29 with Ovalbumin (Ovalbumin is the main protein found in egg white, commonly used to stimulate an immunological reaction in test animals) in PBS (5 micrograms/injection). On day 50, spleens of the mice were harvested (3 weeks after last boost with Ovalbumin). […] Thereafter, additional Ovalbumin was added to the cells at 10 micrograms/ml for in vitro restimulation of the cells. 72 hours later, cell supernatants were harvested and assayed using the Becton Dickinson Mouse Th1/Th2 Cytokine CBA Kit.

[3] = system: Human A549 cells; assay: Apoptosis prevention assay (C2 ceramide, Annexin-5); format: cell-based; conditions: 10 micrograms per ml, 30 min pretreatment, then C2 ceramide
[4] = system: Interleukin-4 (IL-4); assay: Th1/Th2 cytokine profiling assay, IL-4; format: cell-based; conditions: 10 micrograms per ml; Ovalbumin-restimulated spleen cells of immunized Balb/c mice; 72 hours
Description: (§2) The Balb/c mice (originated in 1923, it is a popular strain and is used in many different research disciplines. Also classified as an inbred from the production of 20 or more successive brother-sister matings, the Balb/c mouse is albino and small in size) were immunized on Days 1, 15, and 29 with Ovalbumin (Ovalbumin is the main protein found in egg white, commonly used to stimulate an immunological reaction in test animals) in PBS (5 micrograms/injection). On day 50, spleens of the mice were harvested (3 weeks after last boost with Ovalbumin). […] Thereafter, additional Ovalbumin was added to the cells at 10 micrograms/ml for in vitro restimulation of the cells. 72 hours later, cell supernatants were harvested and assayed using the Becton Dickinson Mouse Th1/Th2 Cytokine CBA Kit. This kit can be used to measure Interleukin-2 (IL-2), Interleukin-4 (IL-4), Interleukin-5 (IL-5), Interferon-γ (IFN-γ), and Tumor Necrosis Factor-α (TNF-α) protein levels in a single sample. The kit performance has been optimized for analysis of physiologically relevant concentrations (μg/ml levels) of specific cytokine proteins in tissue culture supernatants and serum samples.

[5] = system: Interleukin-2 (IL-2); assay: Th1/Th2 cytokine profiling assay, IL-2; format: cell-based; conditions: 10 micrograms per ml; Ovalbumin-restimulated spleen cells of immunized Balb/c mice; 72 hours
Description: as §2

[6] = system: Interleukin-5 (IL-5); assay: Th1/Th2 cytokine profiling assay, IL-5; format: cell-based; conditions: 10 micrograms per ml; Ovalbumin-restimulated spleen cells of immunized Balb/c mice; 72 hours
Description: as §2

[7] = system: Interferon-γ (IFN-γ); assay: Th1/Th2 cytokine profiling assay, IFN-γ; format: cell-based; conditions: 10 micrograms per ml; Ovalbumin-restimulated spleen cells of immunized Balb/c mice; 72 hours
Description: as §1

[8] = system: HIV-1IIIB; assay: HIV-1 antiviral assay in CEM-SS cells (MTS readout); format: cell-based; conditions: positive controls

Molecule	increase on the phagocytic activity of murine macrophages [1] [%]	TNF-a spleen cells; TH1 response (% of control) [2]	prevention (reduction) of ceramide-induced apoptosis on human lung cells [3] [%]	IL-4 spleen cells; TH2 response (% of control) [4]	IL-2 spleen cells (% of control) [5]	IL-5 spleen cells; TH2 response (% of control) [6]	IFNγ spleen cells; TH1 response (% of control) [7]	antiviral activity of positive control compounds (HIV-1) [8]
CCNC(=O)[C@@H]1CCCN1C(=O)[C@H](CCCNC(=N)N)NC(=O)[C@H](CC(C)C)NC(=O)[C@@H](COC(C)(C)C)NC(=O)[C@H](Cc1ccc(O)cc1)NC(=O)[C@H](CO)NC(=O)[C@H](Cc1c[nH]c2ccccc12)NC(=O)[C@H](Cc1cnc[nH]1)NC(=O)[C@@H]1CCC(=O)N1 [peptide 1, Pyr-His-Trp-Ser-Tyr-D-Ser(tBu)-Leu-Arg-Pro-NHEt]	31.4	121.2 % of control	26.4	131.6 % of control	175.3 % of control	80.4 % of control	76.6 % of control	–
Tyr-Gly-Gly-Phe-Leu-Arg-Arg-OH (YGGFLRR-OH) [peptide 2]	25.7	90.3 % of control	11.5	81.2 % of control	93.8 % of control	66.0 % of control	126.8 % of control	–
Cc1cn([C@H]2C[C@H](N=[N+]=[N-])[C@@H](CO)O2)c(=O)[nH]c1=O [AZT]	–	–	–	–	–	–	–	expected levels of antiviral activity
CC(C)(C)NC(=O)[C@@H]1CN(Cc2cccnc2)CCN1C[C@@H](O)C[C@@H](Cc1ccccc1)C(=O)N[C@H]1c2ccccc2C[C@H]1O [indinavir]	–	–	–	–	–	–	–	expected levels of antiviral activity
